Assay results as given in article PMC8580319, “Dual activities of ACC synthase: Novel clues regarding the molecular evolution of ACS genes” (Science Advances, 2021).

Legend:
Conditions in all cases: Cβ-S lyase activity; 4 mM L-cystine, 100 μM PLP, 30°C
OsACS1 = biological target: T1, OsACS1 (Oryza sativa, UniProt A2XLL2); assay: pyruvate formation, […],4-dinitrophenylhydrazine, A520; type: biochemical
T1 construct: gene ACC1; recombinant, His or GST tag, from E. coli
T1 sequence (A2XLL2 1-487): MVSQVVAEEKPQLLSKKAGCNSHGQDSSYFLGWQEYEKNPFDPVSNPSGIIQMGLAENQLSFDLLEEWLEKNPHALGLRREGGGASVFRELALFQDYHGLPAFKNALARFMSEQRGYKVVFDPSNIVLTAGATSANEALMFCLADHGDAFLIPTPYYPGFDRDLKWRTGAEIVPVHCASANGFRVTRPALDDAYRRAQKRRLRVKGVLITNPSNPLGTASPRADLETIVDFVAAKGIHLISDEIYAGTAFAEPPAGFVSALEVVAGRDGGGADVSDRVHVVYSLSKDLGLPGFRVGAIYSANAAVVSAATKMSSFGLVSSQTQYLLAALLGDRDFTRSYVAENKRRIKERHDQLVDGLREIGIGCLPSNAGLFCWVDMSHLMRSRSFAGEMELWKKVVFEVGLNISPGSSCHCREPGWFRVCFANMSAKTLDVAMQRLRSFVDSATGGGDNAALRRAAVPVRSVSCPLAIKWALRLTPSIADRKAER

MdACS1 = biological target: T2, MdACS1 (Malus domestica, UniProt P37821); assay: as above; type: biochemical
T2 construct: gene ACS-1; recombinant, His or GST tag, from E. coli
T2 sequence (P37821 1-473): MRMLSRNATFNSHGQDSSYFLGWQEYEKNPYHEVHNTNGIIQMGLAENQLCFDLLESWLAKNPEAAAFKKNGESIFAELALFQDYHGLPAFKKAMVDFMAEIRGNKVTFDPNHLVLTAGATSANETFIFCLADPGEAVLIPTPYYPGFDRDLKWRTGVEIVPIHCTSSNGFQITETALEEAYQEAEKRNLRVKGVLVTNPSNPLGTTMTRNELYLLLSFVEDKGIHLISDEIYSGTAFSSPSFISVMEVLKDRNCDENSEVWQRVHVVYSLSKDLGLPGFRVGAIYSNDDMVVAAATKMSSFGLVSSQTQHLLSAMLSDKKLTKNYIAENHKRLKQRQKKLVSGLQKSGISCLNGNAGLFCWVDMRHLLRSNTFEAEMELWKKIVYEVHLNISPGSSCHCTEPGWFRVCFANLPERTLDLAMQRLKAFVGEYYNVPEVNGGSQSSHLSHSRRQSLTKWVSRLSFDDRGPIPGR

GmACS7-like = biological target: T3, GmACS7-like (Glycine max, UniProt I1K634); assay: as above; type: biochemical
T3 construct: gene LOC100799562; recombinant, His or GST tag, from E. coli
T3 sequence (I1K634 1-440): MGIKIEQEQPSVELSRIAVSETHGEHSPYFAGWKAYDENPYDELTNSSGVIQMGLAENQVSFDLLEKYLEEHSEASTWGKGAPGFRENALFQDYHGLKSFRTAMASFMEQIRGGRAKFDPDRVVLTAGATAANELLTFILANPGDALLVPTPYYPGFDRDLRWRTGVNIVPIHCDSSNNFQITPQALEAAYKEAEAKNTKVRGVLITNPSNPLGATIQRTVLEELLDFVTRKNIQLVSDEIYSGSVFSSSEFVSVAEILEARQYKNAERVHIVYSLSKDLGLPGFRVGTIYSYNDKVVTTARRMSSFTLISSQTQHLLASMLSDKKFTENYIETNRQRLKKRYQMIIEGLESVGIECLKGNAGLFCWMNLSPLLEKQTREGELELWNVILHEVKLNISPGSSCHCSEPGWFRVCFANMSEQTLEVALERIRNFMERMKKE

AtACS8 = biological target: T4, AtACS8 (Arabidopsis thaliana, UniProt Q9T065); assay: as above; type: biochemical
T4 construct: gene ACS8; recombinant, His or GST tag, from E. coli
T4 sequence (Q9T065 1-469): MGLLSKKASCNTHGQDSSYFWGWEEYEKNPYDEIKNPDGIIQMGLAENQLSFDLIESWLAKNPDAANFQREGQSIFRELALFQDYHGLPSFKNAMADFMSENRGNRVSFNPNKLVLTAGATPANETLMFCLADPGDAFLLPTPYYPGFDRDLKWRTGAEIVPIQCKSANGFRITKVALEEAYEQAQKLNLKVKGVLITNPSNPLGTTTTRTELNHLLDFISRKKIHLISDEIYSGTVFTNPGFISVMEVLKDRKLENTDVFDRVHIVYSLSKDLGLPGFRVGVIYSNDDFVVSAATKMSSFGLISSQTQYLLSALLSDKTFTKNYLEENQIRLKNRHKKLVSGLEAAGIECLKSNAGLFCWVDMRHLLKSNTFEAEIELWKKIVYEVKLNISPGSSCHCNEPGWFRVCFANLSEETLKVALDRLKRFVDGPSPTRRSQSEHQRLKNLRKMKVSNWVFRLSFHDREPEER

AtACS11 = biological target: T5, AtACS11 (Arabidopsis thaliana, UniProt Q9S9U6); assay: as above; type: biochemical
T5 construct: gene ACS11; recombinant, His or GST tag, from E. coli
T5 sequence (Q9S9U6 1-460): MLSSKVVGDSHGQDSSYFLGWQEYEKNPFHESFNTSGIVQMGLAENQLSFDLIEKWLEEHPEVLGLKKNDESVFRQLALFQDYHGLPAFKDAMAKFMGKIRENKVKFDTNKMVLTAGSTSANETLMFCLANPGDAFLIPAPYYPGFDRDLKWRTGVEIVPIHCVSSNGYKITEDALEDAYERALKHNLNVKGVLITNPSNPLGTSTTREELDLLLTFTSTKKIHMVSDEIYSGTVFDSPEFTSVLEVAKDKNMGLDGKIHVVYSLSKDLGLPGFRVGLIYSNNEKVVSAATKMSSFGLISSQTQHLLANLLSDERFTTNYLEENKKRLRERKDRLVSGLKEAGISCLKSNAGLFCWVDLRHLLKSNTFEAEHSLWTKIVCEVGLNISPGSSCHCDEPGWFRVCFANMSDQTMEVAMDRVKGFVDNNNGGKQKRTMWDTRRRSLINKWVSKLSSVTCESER

OsACS5 = biological target: T6, OsACS5 (Oryza sativa, UniProt A0A0P0UZP7)
T6 construct: gene ACS5
T6 sequence (A0A0P0UZP7 whole entry): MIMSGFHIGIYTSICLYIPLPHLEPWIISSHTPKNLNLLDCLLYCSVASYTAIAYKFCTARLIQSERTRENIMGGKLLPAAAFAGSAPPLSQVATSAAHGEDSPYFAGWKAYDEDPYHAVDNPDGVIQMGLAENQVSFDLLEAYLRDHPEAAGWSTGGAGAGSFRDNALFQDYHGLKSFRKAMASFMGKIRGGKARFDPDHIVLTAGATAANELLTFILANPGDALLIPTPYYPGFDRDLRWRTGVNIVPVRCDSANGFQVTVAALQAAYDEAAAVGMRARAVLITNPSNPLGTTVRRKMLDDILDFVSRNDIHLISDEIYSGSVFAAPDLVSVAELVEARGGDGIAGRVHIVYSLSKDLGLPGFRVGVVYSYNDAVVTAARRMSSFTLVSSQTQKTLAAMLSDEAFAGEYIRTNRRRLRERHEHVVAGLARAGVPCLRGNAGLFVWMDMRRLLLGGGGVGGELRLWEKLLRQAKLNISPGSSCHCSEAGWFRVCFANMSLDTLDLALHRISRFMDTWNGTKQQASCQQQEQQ

Which “pyruvate formation, 2,4-dinitrophenylhydrazine, A520” value (“pyruvate formation” below) (OsACS1) does the source give for `N[C@@H](CSSC[C@H](N)C(=O)O)C(=O)O` [L-cystine] here?
Its value is “all of them had ACS and Cβ-S lyase dual enzymatic activities”.

And the “pyruvate formation” value (MdACS1)?
The value was “MdACS1 indeed had both ACS and Cβ-S lyase activities in vitro”.

And the “pyruvate formation” value (GmACS7-like)?
The value was “all of them had ACS and Cβ-S lyase dual enzymatic activities”.

And the “pyruvate formation” value (AtACS8)?
Its value is “all of them had ACS and Cβ-S lyase dual enzymatic activities”.

And the “pyruvate formation” value (AtACS11)?
Its value is “all of them had ACS and Cβ-S lyase dual enzymatic activities”.

And the “pyruvate formation” value (OsACS5)?
The value was “all of them had ACS and Cβ-S lyase dual enzymatic activities”.
